Test results taken from patent US20100189648A1, “INHIBITORS FOR DISRUPTING THE INTERACTION OF UBIQUITINATION RELATED ENZYMES AND USES THEREOF” (priority 2006, published 2010).
In brackets after ≈: the same amount, converted by molar mass. Like-named read-outs stand apart in the source and are kept apart here.

Assays:
Format in all cases: cell-based, human
Hela cells = assay: MTT survival assay, cervical cancer line (Hela cells); conditions: for IC50: Homo sapiens
Protocol: (§1) The effect of the above identified compounds on anti-tumor activity in human carcinoma cells was determined by the MTT survival assay. The MTT assay is a commonly used method in evaluation of cell survival, based on the ability of viable cells to convert MTT (MTT, Sigma, Cat No. 044K5307), a soluble tetrazolium salt [3-(4,5-dimethylthuazole-2-yl)-2,5 diphenyl tetrazolium bromide], into an insoluble formazan precipitate, which is quantitated by spectrophotometry following solubilization in dimethyl sulfoxide (DMSO).
(§2) In brief, different carcinoma cells were treated with negative control, various test articles at different concentration, and positive control (DDP), in 96-well tissue culture dishes. Each test article at different concentration is repeated 3 times.
(§3) Different carcinoma cells were diluted with 10% FBS and RPM1640 or MEM media to a concentration of 3-5×10^4 per ml suspension. 100 microliter of cells were incubated in each well in 96-well tissue culture dishes at 37 C. The cells were incubated at 37 C on the first day. On the second day, media supernatant was removed and replaced with media and different concentration of test articles (100 microliter in each well). Three Negative control wells and three positive control (DDP) wells were also included. The 96-well plate were incubated at 37 C for another 68 hours. After 68 hours, supernatant of each well was removed. 100 microliter of 1 mg/ml MTT diluted in PBS was injected into each well. The cells were incubated at 37 C for another 4 hours. The cells were then solubilized in 150 microliter DMSO, mixed for 10 minutes and absorbance readings were taken using Microplate reader Bio-Rad Model 550 at 570 nm. IR (cell growth inhibition rate) % was calculated as (OD570 of negative control-OD570 with test article)/OD570 of negative control. IC50 (cell 50% inhibition concentration) at 95% confidence level was calculated with Bliss method.

MCF-7 = assay: MTT survival assay, breast cancer cell line (MCF-7); conditions: for IC50: Homo sapiens
Protocol: as §1, §2, §3

A459 = assay: MTT survival assay, lung cancer cell line (A459); conditions: A459; for IC50: Homo sapiens
Protocol: as §1, §2, §3

SMMC-7721 = assay: MTT survival assay, liver cancer cell line (SMMC-7721); conditions: SMMC-7721; for IC50: Homo sapiens
Protocol: as §1, §2, §3

SKOV3 = assay: MTT survival assay, ovarian cancer cell line (SKOV3); conditions: SKOV3 (first table)
Protocol: as §1, §2, §3

U251 = assay: MTT survival assay, glioma cell line (brain tumor U251); conditions: U251 (first table)
Protocol: as §1, §2, §3

[1] = 95% confidence limits of IC50, read-out: IC50 (95% confidence level), interval
[2] = Bliss method, unit not printed (concentrations in μg/ml), read-out: IC50 (95% confidence level)

## O=C(Nc1ccnc2[nH]ccc12)c1cc2ccccc2s1 [Mol 11]
Hela cells; 0.41 μg/ml
  IR (%): 0.7%
  OD(A570 nm): 0.738 ± 0.080
Hela cells; 1.23 μg/ml
  OD(A570 nm): 0.790 ± 0.037
Hela cells; 3.70 μg/ml
  IR (%): 2.6%
  OD(A570 nm): 0.723 ± 0.032
Hela cells; 11.11 μg/ml
  IR (%): 12.0%
  OD(A570 nm): 0.653 ± 0.134
Hela cells; 33.33 μg/ml
  IR (%): 61.9%
  OD(A570 nm): 0.283 ± 0.047
Hela cells; 100 μg/ml
  IR (%): 80.5%
  OD(A570 nm): 0.145 ± 0.031
Hela cells; [1]
  IC50: 26.8 to 38.3 µg/mL (≈ 91.3 to 131 µM)
Hela cells; [2]
  IC50: 31.9 µg/mL (≈ 109 µM)
MCF-7; 3.125 μg/ml
  IR (%): 0%
  OD(A570 nm): 0.903 ± 0.194
MCF-7; 6.25 μg/ml
  IR (%): 21.2%
  OD(A570 nm): 0.711 ± 0.045
MCF-7; 12.5 μg/ml
  IR (%): 16.6%
  OD(A570 nm): 0.752 ± 0.164
MCF-7; 25 μg/ml
  IR (%): 21.9%
  OD(A570 nm): 0.705 ± 0.076
MCF-7; 50 μg/ml
  IR (%): 45.7%
  OD(A570 nm): 0.490 ± 0.093
MCF-7; 100 μg/ml
  IR (%): 47.0%
  OD(A570 nm): 0.478 ± 0.079
MCF-7; MCF7, 95% confidence limits of IC50, read-out: IC50 (95% confidence level), interval
  IC50: 66.9 to 154 µg/mL (≈ 228 to 526 µM)
MCF-7; MCF7, Bliss method, unit not printed (concentrations in μg/ml), read-out: IC50 (95% confidence level)
  IC50: 94.2 µg/mL (≈ 321 µM)
A459; 3.125 μg/ml
  IR (%): 8.6%
  OD(A570 nm): 0.583 ± 0.015
A459; 6.25 μg/ml
  IR (%): 26.1%
  OD(A570 nm): 0.471 ± 0.001
A459; 12.5 μg/ml
  IR (%): 31.2%
  OD(A570 nm): 0.438 ± 0.051
A459; 25 μg/ml
  IR (%): 64.0%
  OD(A570 nm): 0.230 ± 0.040
A459; 50 μg/ml
  IR (%): 76.1%
  OD(A570 nm): 0.152 ± 0.017
A459; 100 μg/ml
  IR (%): 83.1%
  OD(A570 nm): 0.108 ± 0.013
A459; [1]
  IC50: 19.1 to 19.8 µg/mL (≈ 65.2 to 67.4 µM)
A459; [2]
  IC50: 19.4 µg/mL (≈ 66.3 µM)
SMMC-7721; [1]
  IC50: 14.3 to 15.5 µg/mL (≈ 48.9 to 53 µM)
SMMC-7721; [2]
  IC50: 14.9 µg/mL (≈ 50.9 µM)
SMMC-7721; 3.125 μg/ml
  IR (%): 37.0%
  OD(A570 nm): 0.277 ± 0.018
SMMC-7721; 6.25 μg/ml
  IR (%): 35.1%
  OD(A570 nm): 0.286 ± 0.092
SMMC-7721; 12.5 μg/ml
  IR (%): 53.1%
  OD(A570 nm): 0.207 ± 0.007
SMMC-7721; 25 μg/ml
  IR (%): 53.5%
  OD(A570 nm): 0.205 ± 0.018
SMMC-7721; 50 μg/ml
  IR (%): 63.0%
  OD(A570 nm): 0.163 ± 0.009
SMMC-7721; 100 μg/ml
  IR (%): 68.1%
  OD(A570 nm): 0.141 ± 0.006
SKOV3; Homo sapiens, SK-OV-3, Bliss method, unit not printed (concentrations in μg/ml), read-out: IC50 (95% confidence level)
  IC50: 29 µg/mL (≈ 98.9 µM)
SKOV3; 3.125 μg/ml
  IR (%): 0%
  OD(A570 nm): 0.753 ± 0.074
SKOV3; 6.25 μg/ml
  IR (%): 0.9%
  OD(A570 nm): 0.694 ± 0.043
SKOV3; 12.5 μg/ml
  IR (%): 4.1%
  OD(A570 nm): 0.671 ± 0.063
SKOV3; 25 μg/ml
  IR (%): 45.0%
  OD(A570 nm): 0.385 ± 0.017
SKOV3; 50 μg/ml
  IR (%): 55.1%
  OD(A570 nm): 0.314 ± 0.041
SKOV3; 100 μg/ml
  IR (%): 86.0%
  OD(A570 nm): 0.098 ± 0.010
U251; Homo sapiens, U-251, Bliss method, unit not printed (concentrations in μg/ml), read-out: IC50 (95% confidence level)
  IC50: 4340 µg/mL (≈ 14800 µM)
U251; 3.125 μg/ml
  IR (%): 9.1%
  OD(A570 nm): 0.797 ± 0.016
U251; 6.25 μg/ml
  IR (%): 13.5%
  OD(A570 nm): 0.758 ± 0.019
U251; 12.5 μg/ml
  IR (%): 15.1%
  OD(A570 nm): 0.744 ± 0.045
U251; 25 μg/ml
  IR (%): 20.5%
  OD(A570 nm): 0.697 ± 0.053
U251; 50 μg/ml
  IR (%): 19.1%
  OD(A570 nm): 0.709 ± 0.054
U251; 100 μg/ml
  IR (%): 25.8%
  OD(A570 nm): 0.650 ± 0.006
